Assay results: patent publication US8338638B2, “Antimicrobial derivatives of anacardic acid and process for preparing the same” (Unichem Laboratories Ltd., priority 2006, dated 2012)
≈ marks a conversion by molar mass, not a printed value. Read-outs that look alike come from different tables or passages of the source.

Key:
[1] = system: MRSA; assay: Broth assay, antibacterial activity (MIC/MBC) against MRSA; format: cell-based, Methicillin resistant Stapphalococcus aureus; details: Staphylococcus aureus; for MIC: 24 h
Procedure: (§1) The invention specifically relates to the process for the preparation of antimicrobial derivatives of saturated anacardic acid (C15:0). The mixture of anacardic acids chromatographically purified from CNSL was hydrogenated using Pd—C to get the saturated anacardic acid (C15:0). Said derivatives were prepared by adopting the techniques used in synthetic chemistry for nitration, halogenation and acetylation of various organic compounds. The synthesized derivatives were assayed for anti bacterial activity against Stapphalococcus aureus and Methicillin resistant Stapphalococcus aureus and Enterococcus fecalis by the broth assay used for antibiotic susceptibility tests and the minimum inhibitory concentration (MIC) and minimum bactericidal concentration (MBC) determined.
(§2) Procedure for Antimicrobial Testing:
(§3) The bacterial colonies from Luria-Bertani (LB) agar plates were inoculated into sterile LB broth and incubated in an incubator shaker for 12 h. This culture was diluted such that the innoculum when added to the test broth would correspond to 10^5 colony forming units (CFU). The broth assays were done in sterile culture tubes containing 5 mL of LB medium. The test compounds dissolved in ethanol and controls were added to these tubes and then the innoculum was added and the tubes incubated at 37° C. for 24 h. After 24 h incubation the OD600 was recorded and then plated on LB agar plates and incubated fore 24 h at 37° C. The colonies were counted and the minimum inhibitory concentration (MIC) and minimum bactericidal concentration (MBC) calculated. The MIC is determined by the minimum concentration of the sample at which no growth was observed as determined by measuring the OD600. The MBC is determined by the concentration at which there is a reduction in the cfu in the broth assay from 10^5 to 10^3 counted after plating on LB agar plates.

[2] = system: Sa (NCTC8325); assay: Broth assay, antibacterial activity (MIC/MBC) against Sa (NCTC8325); format: cell-based, Stapphalococcus aureus; details: for MIC: 24 h
Procedure: as §1, §2, §3

[3] = system: E. fecalis; assay: Broth assay, antibacterial activity (MIC/MBC) against E. fecalis; format: cell-based; details: Enterococcus; for MIC: 24 h
Procedure: as §1, §2, §3

[4] = system: MRSA; details: against MRSA; Kube et al; cited from earlier work
[5] = LB broth, 37° C., no growth by OD600, read-out: MIC
[6] = reduction in cfu from 10^5 to 10^3 after plating on LB agar, read-out: MBC
[7] = Sa (NCTC8325), LB broth, 37° C., no growth by OD600, read-out: MIC
[8] = Sa (NCTC8325), reduction in cfu from 10^5 to 10^3 after plating on LB agar, read-out: MBC
[9] = E. fecalis, LB broth, 37° C., no growth by OD600, read-out: MIC
[10] = E. fecalis, reduction in cfu from 10^5 to 10^3 after plating on LB agar, read-out: MBC

Row | MIC [1, 5] | MIC [2, 7] | MIC [3, 9] | SMILES | MBC [1, 6] | MBC [2, 8] | MBC [3, 10] | minimum inhibitory concentration (MIC) [4] | MBC [1] | MIC [1] | MBC [2] | MIC [2] | MBC [3] | MIC [3]
1 | > 50 mg/L | > 10 mg/L | 0.5 mg/L (≈ 1.43 µM) | CCCCCCCCCCCCCCCc1cccc(O)c1C(=O)O [AA, 6-pentadecyl salicylic acid, reference compound] | > 50 mg/L | > 10 mg/L | 6 mg/L (≈ 17.2 µM) | 1600 mg/L (≈ 4590 µM) | – | – | – | – | – | –
2 | 2 mg/L (≈ 5.12 µM) | 6 mg/L (≈ 15.4 µM) | 1 mg/L (≈ 2.56 µM) | CCCCCCCCCCCCCCCc1cccc(OC(C)=O)c1C(=O)O [AAA, 6-Pentadecyl-2-acetyloxybenzoic acid] | 6 mg/L (≈ 15.4 µM) | 7 to 8 mg/L (≈ 17.9 to 20.5 µM) | 6 mg/L (≈ 15.4 µM) | – | – | – | – | – | – | –
3 | 9 to 10 mg/L (≈ 19.2 to 21.3 µM) | > 10 mg/L | 1 mg/L (≈ 2.13 µM) | CCCCCCCCCCCCCCCc1c(Br)ccc(OC(C)=O)c1C(=O)O [ADBAA, 5-Bromo-6-pentadecyl-2-acetyloxybenzoic acid] | > 10 mg/L | > 10 mg/L | 3 mg/L (≈ 6.39 µM) | – | – | – | – | – | – | –
4 | – | – | – | CCCCCCCCCCCCCCCc1c([N+](=O)[O-])cc([N+](=O)[O-])c(O)c1C(=O)O [DAA, 3,5-Dinitro-6-pentadecyl-2-hydroxybenzoic acid] | – | – | – | – | 6 mg/L (≈ 13.7 µM) | 3 mg/L (≈ 6.84 µM) | 3 to 5 mg/L (≈ 6.84 to 11.4 µM) | 2 mg/L (≈ 4.56 µM) | 6 mg/L (≈ 13.7 µM) | 6 mg/L (≈ 13.7 µM)
5 | > 20 mg/L | > 10 mg/L | 6 mg/L (≈ 14 µM) | CCCCCCCCCCCCCCCc1c(Br)ccc(O)c1C(=O)O [DBAA, 5-Bromo-6-pentadecyl-2-hydroxybenzoic acid] | > 20 mg/L | > 10 mg/L | 6 mg/L (≈ 14 µM) | – | – | – | – | – | – | –
6 | 1 mg/L (≈ 2.76 µM) | 1 mg/L (≈ 2.76 µM) | 1 mg/L (≈ 2.76 µM) | CCCCCCCCCCCCCCCc1cccc(OC)c1C(=O)O [MAA, 2-Methoxy-6-Pentadecyl-benzoic acid] | 4 mg/L (≈ 11 µM) | 8 mg/L (≈ 22.1 µM) | 6 mg/L (≈ 16.5 µM) | – | – | – | – | – | – | –
7 | 10 to 20 mg/L (≈ 17.8 to 35.7 µM) | > 10 mg/L | 6 mg/L (≈ 10.7 µM) | CCCCCCCCCCCCCCCc1cccc(OC)c1C(=O)NC1C(=O)N2C1SC(C)(C)C2C(=O)O (centres unmarked) [MAA-APA] | > 20 mg/L | > 10 mg/L | > 10 mg/L | – | – | – | – | – | – | –
8 | > 20 mg/L | > 10 mg/L | 6 mg/L (≈ 9.98 µM) | C=C[C@@](C)(/C=C/c1ccc(OC(=O)c2c(CCCCCCCCCCCCCCC)cccc2OC)cc1)CCC=C(C)C [MAA-Ba] | > 20 mg/L | > 10 mg/L | > 10 mg/L | – | – | – | – | – | – | –
9 | > 20 mg/L | > 10 mg/L | 6 mg/L (≈ 11.8 µM) | CCCCCCCCCCCCCCCc1cccc(OC)c1C(=O)NC(Cc1ccccc1)C(=O)O (centres unmarked) [MAA-F] | > 20 mg/L | > 10 mg/L | > 10 mg/L | – | – | – | – | – | – | –
10 | > 20 mg/L | > 10 mg/L | 6 mg/L (≈ 12.5 µM) | CCCCCCCCCCCCCCCc1cccc(OC)c1C(=O)Nc1ccc(C(=O)O)cc1 [MAA-PABA] | > 20 mg/L | > 10 mg/L | > 10 mg/L | – | – | – | – | – | – | –
11 | > 20 mg/L | > 10 mg/L | > 10 mg/L | CCCCCCCCCCCCCCCc1cccc(OC)c1C(=O)Nc1ccc([N+](=O)[O-])cc1 [MAA-PNA] | > 20 mg/L | > 10 mg/L | > 10 mg/L | – | – | – | – | – | – | –
12 | 2 mg/L (≈ 3.8 µM) | 3 to 5 mg/L (≈ 5.71 to 9.51 µM) | 6 mg/L (≈ 11.4 µM) | CCCCCCCCCCCCCCCc1cccc(OC)c1C(=O)NC(Cc1ccc(O)cc1)C(=O)O (centres unmarked) [MAAY] | 10 mg/L (≈ 19 µM) | > 10 mg/L | > 10 mg/L | – | – | – | – | – | – | –
13 | 0.5 mg/L (≈ 1.13 µM) | 3 to 5 mg/L (≈ 6.8 to 11.3 µM) | 1 mg/L (≈ 2.27 µM) | CCCCCCCCCCCCCCCc1c(Br)ccc(OC)c1C(=O)O [MDBAA, 5Bromo-6-pentadecyl-2-methoxybenzoic acid] | 4 mg/L (≈ 9.06 µM) | 5 mg/L (≈ 11.3 µM) | 3 mg/L (≈ 6.8 µM) | – | – | – | – | – | – | –
14 | – | – | – | CCCCCCCCCCCCCCCc1cc([N+](=O)[O-])c([N+](=O)[O-])c(O)c1C(=O)O [NAA, 3,4-Dinitro-6-pentadecyl-2-hydroxybenzoic acid] | – | – | – | – | 10 mg/L (≈ 22.8 µM) | 1 mg/L (≈ 2.28 µM) | 7 to 8 mg/L (≈ 16 to 18.2 µM) | 1 mg/L (≈ 2.28 µM) | 7 mg/L (≈ 16 µM) | 0.5 mg/L (≈ 1.14 µM)
15 | – | – | – | C=CCC=CCC=CCCCCCCCc1cccc(O)c1C(=O)O [triene (C15:3)] | – | – | – | 6.5 mg/L (≈ 19 µM) | – | – | – | – | – | –

Row | SMILES | MIC [1, 5] | MIC [2, 7] | MIC [3, 9] | MBC [1, 6] | MBC [2, 8] | MBC [3, 10] | minimum inhibitory concentration (MIC) [4] | MBC [1] | MIC [1] | MBC [2] | MIC [2] | MBC [3] | MIC [3]
16 | CCCCCCCCCCCCCCCc1c([N+](=O)[O-])cc([N+](=O)[O-])c(OC(C)=O)c1C(=O)O [ADAA, 3,5-Dinitro-6-pentadecyl-2-acetyloxybenzoic acid] | 4 mg/L (≈ 8.32 µM) | 2 mg/L (≈ 4.16 µM) | 6 mg/L (≈ 12.5 µM) | 10 mg/L (≈ 20.8 µM) | 6 mg/L (≈ 12.5 µM) | 6 mg/L (≈ 12.5 µM) | – | – | – | – | – | – | –
17 | CCCCCCCCCCCCCCCc1cc([N+](=O)[O-])c([N+](=O)[O-])c(OC(C)=O)c1C(=O)O [ANAA, 3,4-Dinitro-6-pentadecyl-2-acetyloxybenzoic acid] | 2 mg/L (≈ 4.16 µM) | 1 mg/L (≈ 2.08 µM) | 0.5 mg/L (≈ 1.04 µM) | > 10 mg/L | > 10 mg/L | 7 mg/L (≈ 14.6 µM) | – | – | – | – | – | – | –
18 | CCCCCCCCCCCCCCCc1c([N+](=O)[O-])cc([N+](=O)[O-])c(OC)c1C(=O)O [MDAA, 3,5-Dinitro-6-pentadecyl-2-Methoxybenzoic acid] | 2 mg/L (≈ 4.42 µM) | 6 mg/L (≈ 13.3 µM) | 0.5 mg/L (≈ 1.1 µM) | 4 mg/L (≈ 8.84 µM) | 8 mg/L (≈ 17.7 µM) | 2 mg/L (≈ 4.42 µM) | – | – | – | – | – | – | –
